This is an account of results in US10738056B2 (Aduro BioTech, Inc., priority 2017, dated 2020).

Like-named read-outs stand apart in the source and are kept apart here.

One series deals with Trex1-KO BMM. Put plainly: Viability of Trex1-KO BMM (Cell Titer Glo 2.0). The series is classed as cell-based, mice. The settings on record: Trex1-KO BMM at the cytokine IC50 concentrations. As to the method: The inhibition of secreted cytokine was measured in bone marrow-derived macrophages (BMMs) from diseased mice to evaluate the potency of compounds of the invention as described herein. […] To derive bone marrow macrophages, marrow extracted from the femurs and tibias were harvested from Trex1-KO mice was cultured in growth media supplemented with macrophage colony-stimulating factor (M-CSF). Differentiated BMM were harvested and frozen for subsequent experimentation. For treatment with compound C1089 (see Example 13), a frozen stock of Trex1-KO BMM was thawed and 1×10^5 cells were plated in 96 well format. BMMs were treated with a dilution series of C1089 and incubated overnight at 37° C. 5% CO2, at which point cellular supernatants were harvested and stored at −80° C. for subsequent analysis. The media used for this dilution series was without FBS. Remaining cells were evaluated for viability using Cell Titer Glo 2.0 kit according to the manufacturer instructions. BMM supernatants were evaluated for the secreted cytokine […] (RANTES/CCL5) or for secreted cytokine monocyte chemoattractant protein 1 (MCP-1/CCL2) using cytometric bead array mouse Flex Set kits (BD Biosciences). Cytokine concentration was calculated from a standard curve and normalized to vehicle (DMSO) treated cells.
For orientation: Cellular ATP, detected with luciferase, serves as a proxy for viable cell number.

Series [1] has as its system RANTES/CCL5 secretion by Trex1-KO BMM. The experiment in a line: Inhibition of RANTES/CCL5 secretion by Trex1-KO bone marrow-derived macrophages. Also on record: key to BMM IC50 R (RANTES): A: an IC50 value less than 5 μM; B: an IC50 value between 5 and 20 μM; where an IC50 value could not be calculated from the data. The settings on record: for BMM IC50 R (RANTES): RANTES secretion. The format is cell-based, mice. Put shortly:
(§1)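 Bone marrow macrophages from Trex1-KO mice, differentiated with M-CSF, 1×10^5 cells/well, treated overnight at 37 °C with a compound dilution series in FBS-free medium. Secreted cytokine measured by cytometric bead array from a standard curve, normalized to DMSO; viability by CellTiter-Glo.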

The subject of series [2] is MCP-1/CCL2 secretion by Trex1-KO BMM. The experiment in a line: Inhibition of MCP-1/CCL2 secretion by Trex1-KO bone marrow-derived macrophages. Also on record: key to BMM IC50 M (MCP-1): A: an IC50 value less than 5 μM; B: an IC50 value between 5 and 20 μM; where an IC50 value could not be calculated from the data. The settings on record: for IC50: Mus musculus, Macrophage. The series is classed as cell-based, mice. A digest of the protocol:
as §1

For series [3], the target named is Human cGAS amino acids 155-522 (Homo sapiens (Human), UniProt Q8N884). Put plainly: cGAS biochemical activity assay (ATP remaining, Kinase-Glo Max luminescence). The note with it: human cGAS 155-522, ATP remaining (Kinase-Glo Max); read-out: cGAS IC50. In general terms: Kinase-Glo reads ATP consumption through a luciferase reaction.
The subject of series [4] is cGAS/STING pathway in THP1 cells. Put plainly: THP1 cell-based cGAS/STING pathway activity assay (IRF-3-linked luciferase reporter). The settings on record: Homo sapiens, THP-1. Put shortly:
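THP1 cells carrying an IRF-3-driven luciferase reporter were read across a range of compound concentrations, and IC50 values were derived from these concentration responses; the assay upper limit was 100 μM.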

Series [5] in a line: Solubility of free base (footnote to Table 15). The series is classed as physicochemical. The settings on record: tested as the HCl salt.
Setting [6] is: MCP-1 secretion, read-out: BMM IC50 M (MCP-1).

Chain of Human cGAS amino acids 155-522 (Q8N884 157-522): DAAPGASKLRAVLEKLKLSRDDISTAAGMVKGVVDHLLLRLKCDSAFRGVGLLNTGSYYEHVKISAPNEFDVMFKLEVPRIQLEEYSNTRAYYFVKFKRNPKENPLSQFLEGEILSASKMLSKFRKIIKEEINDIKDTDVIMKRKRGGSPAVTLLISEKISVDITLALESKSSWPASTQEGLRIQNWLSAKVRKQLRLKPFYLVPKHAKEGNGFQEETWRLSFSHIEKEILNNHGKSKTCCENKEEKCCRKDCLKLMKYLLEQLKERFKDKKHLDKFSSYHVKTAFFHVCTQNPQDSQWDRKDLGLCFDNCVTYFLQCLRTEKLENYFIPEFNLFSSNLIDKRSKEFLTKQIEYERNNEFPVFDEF

In the series on Trex1-KO BMM, `COc1cccc2oc(-c3c(C#N)[nH]c4c(-c5ccccc5)c(C(F)(F)F)nn4c3=O)nc12` [Compound C1089, 6-(4-methoxybenzo[d]oxazol-2-yl)-7-oxo-3-phenyl-2-(trifluoromethyl)-4,7-dihydropyrazolo[1,5-a]pyrimidine-5-carbonitrile] showed a BMM viability of 100%. The IC50 is 1.25 µM in series [1] (Mus musculus, Macrophage, overnight, media without FBS, normalized to DMSO, read-out: RANTES/CCL5 IC50); 6.97 µM in series [2] (overnight, media without FBS, normalized to DMSO, read-out: MCP-1/CCL2 IC50); less than 20 µM in series [3]; less than 20 µM in series [4].

Consider `COc1cc(CN)cc2oc(-c3c(C)[nH]c4c(-c5ccccc5)c(C(F)(F)F)nn4c3=O)nc12` [Compound C1128, 6-(6-(aminomethyl)-4-methoxybenzo[d]oxazol-2-yl)-5-methyl-3-phenyl-2-(trifluoromethyl)pyrazolo[1,5-a]pyrimidin-7(4H)-one], for which, in series [5], the “solubility of the free base” value is on record as “insoluble”. In series [3], the IC50 is more than 250 µM.

Regarding `CO[C@@](c1ccccc1)(c1nnc(-c2c(C)[nH]c3c(-c4ccccc4)c(C(F)(F)F)nn3c2=O)o1)C(F)(F)F` [Compound D1028, (S)-5-methyl-3-phenyl-6-(5-(2,2,2-trifluoro-1-methoxy-1-phenylethyl)-1,3,4-oxadiazol-2-yl)-2-(trifluoromethyl)pyrazolo[1,5-a]pyrimidin-7(4H)-one], in series [1], the “BMM IC50 R (RANTES)” value is “C”. Also, the “BMM IC50 M (MCP-1)” value in series [2] (MCP-1 secretion) is “C”. Further, the values for the IC50 in series [3] and in series [4] were less than 20 µM and more than 100 µM, respectively.

For the compound `COc1ccc(C(N)=O)c2oc(-c3c(C)[nH]c4c(-c5ccccc5)c(C(F)(F)F)nn4c3=O)nc12` [Compound C1113, 4-methoxy-2-(5-methyl-7-oxo-3-phenyl-2-(trifluoromethyl)-4,7-dihydropyrazolo[1,5-a]pyrimidin-6-yl)benzo[d]oxazole-7-carboxamide], the “BMM IC50 R (RANTES)” value in series [1] is recorded as “C”. Also, the IC50 in series [2] (setting [6]) is less than 5 µM; in series [3], less than 20 µM; in series [4] it was less than 20 µM.

As for `COc1cccc2oc(-c3c(CSC)[nH]c4c(-c5ccccc5)c(C(F)(F)F)nn4c3=O)nc12` [Compound C1136, 6-(4-methoxybenzo[d]oxazol-2-yl)-5-((methylthio)methyl)-3-phenyl-2-(trifluoromethyl)pyrazolo[1,5-a]pyrimidin-7(4H)-one], the “BMM IC50 R (RANTES)” value in series [1] was “C”. Also, the IC50 was 5 to 20 µM in series [2] (setting [6]), less than 20 µM in series [3] and less than 20 µM in series [4].
